According to publication PMC8807399, “Synthesis, Characterization, and in vivo Evaluation of a Novel Potent Autotaxin-Inhibitor” (Frontiers in Pharmacology, 2022):

What was measured:
Histamine H1 receptor = target: T1, Histamine H1 receptor (Homo sapiens, UniProt P35367); test: Off-target screen Histamine H1; assay type: binding; details: 10 µM; single point, duplicates
T1 construct: purchased Eurofins CEREP SA

GSK-3B = target: T2, GSK-3B (Homo sapiens, UniProt P49841); test: Off-target screen GSK-3B; assay type: biochemical; details: 10 µM; single point, duplicates
T2 construct: purchased Eurofins CEREP SA

MAO-A = target: T3, MAO-A (Homo sapiens, UniProt P21397); test: Off-target screen MAO-A; assay type: biochemical; details: 10 µM; single point, duplicates
T3 construct: purchased Eurofins CEREP SA

5HT3 = target: T4, 5HT3 (Homo sapiens, UniProt P46098); test: Off-target screen 5HT3; assay type: binding; details: 10 µM; single point, duplicates
T4 construct: purchased Eurofins CEREP SA

[1] = target: Glycine receptor (strychnine insensitive) (Rattus norvegicus, UniProt P35439); test: Off-target screen Glycine receptor (strychnine insensitive); assay type: binding; details: 10 µM; single point, duplicates
[2] = In vitro microsomal stability, mouse; assay type: in vitro ADME; details: mouse microsomes, 1 µM; value of 10 = low clearance, essentially below detection limit
Experimental: (§1) Incubations of a test compound at a concentration of 1 µM with microsomes (0.5 mg/ml) from the appropriate species (human, mouse, or rat) plus cofactor NADPH were performed in 96-well plates at 37°C on a TECAN automated liquid handling system (Tecan Group Ltd., Männedorf, Switzerland). After pre-incubation of the test compound with the microsomes for 10 min, the enzymatic reaction was started by the addition of cofactors. Aliquots of the incubations are removed at 1, 3, 6, 9, 15, 25, 35, and 45 min and are then quenched with 1:3 (v/v) acetonitrile containing internal standards. Samples were then cooled and centrifuged before analysis of the supernatant by LC-MS/MS. Logarithmic Peak area ratios (test compound peak area/internal standard peak area) were plotted against incubation time and a linear fit made to the data with emphasis upon the initial rate of compound disappearance. The slope of the fit was then used to calculate the intrinsic clearance: Clint (µL/min/mg protein) = −slope (min-1) * 1,000/[protein concentration (mg/ml)].

[3] = system: Nicotinic receptor (muscle); test: Off-target screen Nicotinic receptor (muscle); details: 10 µM; single point, duplicates
Prostaglandin F receptor = target: T5, Prostaglandin F receptor (Homo sapiens, UniProt P43088); test: Off-target screen Prostaglandin F receptor; assay type: binding; details: 10 µM; single point, duplicates
T5 construct: purchased Eurofins CEREP SA

ACE = target: T6, ACE (Homo sapiens, UniProt P12821); test: Off-target screen ACE; assay type: biochemical; details: 10 µM; single point, duplicates
T6 construct: purchased Eurofins CEREP SA

Estrogen receptor alpha = target: T7, Estrogen receptor alpha (Homo sapiens, UniProt P03372); test: Off-target screen Estrogen receptor alpha; assay type: binding; details: 10 µM; single point, duplicates
T7 construct: purchased Eurofins CEREP SA

S1P1 = target: T8, S1P1 (Homo sapiens, UniProt P21453); test: Off-target screen S1P1, agonist mode; assay type: cell-based; details: 10 µM, single point, duplicates
T8 construct: purchased Eurofins CEREP SA

Sigma = test: Off-target screen Sigma; details: 10 µM; single point, duplicates
HDAC11 = target: T9, HDAC11 (Homo sapiens, UniProt Q96DB2); test: Off-target screen HDAC11; assay type: biochemical; details: 10 µM; single point, duplicates
T9 construct: purchased Eurofins CEREP SA

LPA3 receptor [4] = target: T10, LPA3 receptor (Homo sapiens, UniProt Q9UBY5); test: Off-target screen LPA3 receptor, antagonist mode; assay type: cell-based; details: 10 µM, single point, duplicates
T10 construct: purchased Eurofins CEREP SA

MMP-3 = target: T11, MMP-3 (Homo sapiens, UniProt P08254); test: Off-target screen MMP-3; assay type: biochemical; details: 10 µM; single point, duplicates
T11 construct: purchased Eurofins CEREP SA

Alpha2A-adrenoreceptor = target: T12, Alpha2A-adrenoreceptor (Homo sapiens, UniProt P08913); test: Off-target screen Alpha2A-adrenoreceptor; assay type: binding; details: 10 µM; single point, duplicates
T12 construct: purchased Eurofins CEREP SA

LPA3 receptor [5] = target: T10, LPA3 receptor; test: Off-target screen LPA3 receptor, agonist mode; assay type: cell-based; details: 10 µM, single point, duplicates
Adenosine A1 respetor = target: T13, Adenosine A1 respetor (Homo sapiens, UniProt P30542); test: Off-target screen Adenosine A1; assay type: binding; details: 10 µM; single point, duplicates
T13 construct: purchased Eurofins CEREP SA

[6] = In vitro microsomal stability, human; assay type: in vitro ADME; details: human microsomes, 1 µM; value of 10 = low clearance, essentially below detection limit
Experimental: as §1

Cyclooxygenase 2 = target: T14, Cyclooxygenase 2 (Homo sapiens, UniProt P35354); test: Off-target screen Cyclooxygenase 2; assay type: biochemical; details: 10 µM; single point, duplicates
T14 construct: purchased Eurofins CEREP SA
T14 sequence (P35354 18-604): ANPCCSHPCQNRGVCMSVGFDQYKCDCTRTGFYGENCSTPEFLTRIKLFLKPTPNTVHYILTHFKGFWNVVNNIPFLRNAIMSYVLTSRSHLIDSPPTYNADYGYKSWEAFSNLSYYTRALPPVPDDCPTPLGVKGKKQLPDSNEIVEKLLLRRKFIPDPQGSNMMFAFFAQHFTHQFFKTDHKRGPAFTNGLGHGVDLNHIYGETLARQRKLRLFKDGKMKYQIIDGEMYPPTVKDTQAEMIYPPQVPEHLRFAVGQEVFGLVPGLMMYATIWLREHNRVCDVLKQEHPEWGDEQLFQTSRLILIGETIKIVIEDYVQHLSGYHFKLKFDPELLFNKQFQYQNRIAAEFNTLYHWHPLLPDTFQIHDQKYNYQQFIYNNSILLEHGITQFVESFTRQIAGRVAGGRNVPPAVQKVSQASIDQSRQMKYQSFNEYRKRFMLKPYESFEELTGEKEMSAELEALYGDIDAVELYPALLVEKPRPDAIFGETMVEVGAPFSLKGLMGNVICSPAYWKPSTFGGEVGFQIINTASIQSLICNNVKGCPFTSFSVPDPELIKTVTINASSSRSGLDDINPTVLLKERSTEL

T10 sequence (Q9UBY5 whole entry): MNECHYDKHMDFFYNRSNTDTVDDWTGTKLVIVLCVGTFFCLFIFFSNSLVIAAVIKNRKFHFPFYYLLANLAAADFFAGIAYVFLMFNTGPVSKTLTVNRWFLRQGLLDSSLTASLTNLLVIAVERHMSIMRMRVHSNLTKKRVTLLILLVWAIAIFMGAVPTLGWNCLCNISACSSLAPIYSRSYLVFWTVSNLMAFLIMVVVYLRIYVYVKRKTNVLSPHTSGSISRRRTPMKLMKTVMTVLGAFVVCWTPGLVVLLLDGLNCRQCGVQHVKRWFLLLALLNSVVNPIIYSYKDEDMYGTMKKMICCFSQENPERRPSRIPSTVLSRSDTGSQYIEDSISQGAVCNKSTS
Glycine receptor (strychnine insensitive), sequence (P35439 394-800): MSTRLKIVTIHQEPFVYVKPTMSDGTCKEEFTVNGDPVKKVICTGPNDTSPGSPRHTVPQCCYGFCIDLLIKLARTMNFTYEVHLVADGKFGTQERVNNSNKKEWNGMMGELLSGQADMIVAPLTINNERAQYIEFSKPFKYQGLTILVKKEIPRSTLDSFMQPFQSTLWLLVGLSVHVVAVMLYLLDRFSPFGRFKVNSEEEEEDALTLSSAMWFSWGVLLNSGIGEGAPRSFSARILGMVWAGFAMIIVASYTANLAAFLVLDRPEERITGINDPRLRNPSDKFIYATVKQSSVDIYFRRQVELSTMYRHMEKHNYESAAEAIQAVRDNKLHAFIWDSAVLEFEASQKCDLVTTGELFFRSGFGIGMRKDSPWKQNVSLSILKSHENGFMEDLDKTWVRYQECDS
T4 sequence (P46098 24-478): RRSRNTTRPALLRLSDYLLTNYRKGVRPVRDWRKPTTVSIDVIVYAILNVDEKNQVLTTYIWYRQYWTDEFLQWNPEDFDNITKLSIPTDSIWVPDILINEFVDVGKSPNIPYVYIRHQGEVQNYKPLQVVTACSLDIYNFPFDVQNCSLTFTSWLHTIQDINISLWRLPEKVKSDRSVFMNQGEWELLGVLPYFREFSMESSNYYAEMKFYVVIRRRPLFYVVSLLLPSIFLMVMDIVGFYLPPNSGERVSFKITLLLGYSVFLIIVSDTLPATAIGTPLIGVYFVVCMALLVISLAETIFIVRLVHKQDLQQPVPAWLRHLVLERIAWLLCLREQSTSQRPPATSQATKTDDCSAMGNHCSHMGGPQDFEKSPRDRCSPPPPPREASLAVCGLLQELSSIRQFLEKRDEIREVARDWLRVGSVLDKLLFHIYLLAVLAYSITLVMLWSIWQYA
T12 sequence (P08913 whole entry): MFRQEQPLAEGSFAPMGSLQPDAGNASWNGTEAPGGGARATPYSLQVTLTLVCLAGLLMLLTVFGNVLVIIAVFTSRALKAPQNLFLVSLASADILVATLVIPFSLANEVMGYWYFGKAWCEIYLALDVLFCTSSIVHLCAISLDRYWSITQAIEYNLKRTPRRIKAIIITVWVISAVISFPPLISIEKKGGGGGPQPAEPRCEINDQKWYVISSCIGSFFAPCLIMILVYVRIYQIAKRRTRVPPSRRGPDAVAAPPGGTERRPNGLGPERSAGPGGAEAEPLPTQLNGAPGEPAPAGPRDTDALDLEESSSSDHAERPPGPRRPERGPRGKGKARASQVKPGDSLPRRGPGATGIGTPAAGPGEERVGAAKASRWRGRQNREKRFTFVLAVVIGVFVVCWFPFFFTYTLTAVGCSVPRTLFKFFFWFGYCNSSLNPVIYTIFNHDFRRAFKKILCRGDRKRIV
T11 sequence (P08254 100-477): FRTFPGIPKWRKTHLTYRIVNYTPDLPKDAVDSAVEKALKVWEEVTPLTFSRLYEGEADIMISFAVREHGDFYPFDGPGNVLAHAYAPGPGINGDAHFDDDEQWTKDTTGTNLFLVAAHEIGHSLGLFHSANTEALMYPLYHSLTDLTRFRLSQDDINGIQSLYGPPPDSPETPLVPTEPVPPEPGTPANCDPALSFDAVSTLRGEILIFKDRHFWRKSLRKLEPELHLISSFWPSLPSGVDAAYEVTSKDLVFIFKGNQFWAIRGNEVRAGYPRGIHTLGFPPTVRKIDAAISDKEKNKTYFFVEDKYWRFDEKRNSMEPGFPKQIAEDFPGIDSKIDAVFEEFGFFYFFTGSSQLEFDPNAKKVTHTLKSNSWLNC
T3 sequence (P21397 whole entry): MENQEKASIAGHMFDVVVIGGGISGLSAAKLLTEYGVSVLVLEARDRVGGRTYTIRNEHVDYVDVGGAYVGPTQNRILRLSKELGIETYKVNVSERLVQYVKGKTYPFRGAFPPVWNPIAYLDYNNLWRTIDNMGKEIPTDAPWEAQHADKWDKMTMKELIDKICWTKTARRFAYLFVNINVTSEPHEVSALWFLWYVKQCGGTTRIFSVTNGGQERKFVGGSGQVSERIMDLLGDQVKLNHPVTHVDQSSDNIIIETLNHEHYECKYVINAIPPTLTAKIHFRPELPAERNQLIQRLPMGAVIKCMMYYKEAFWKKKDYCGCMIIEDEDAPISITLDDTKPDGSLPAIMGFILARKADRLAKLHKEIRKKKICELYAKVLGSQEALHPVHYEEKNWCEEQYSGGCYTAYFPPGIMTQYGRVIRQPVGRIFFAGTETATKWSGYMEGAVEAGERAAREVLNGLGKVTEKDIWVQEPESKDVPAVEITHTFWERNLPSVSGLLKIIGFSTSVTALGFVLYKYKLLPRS
T8 sequence (P21453 whole entry): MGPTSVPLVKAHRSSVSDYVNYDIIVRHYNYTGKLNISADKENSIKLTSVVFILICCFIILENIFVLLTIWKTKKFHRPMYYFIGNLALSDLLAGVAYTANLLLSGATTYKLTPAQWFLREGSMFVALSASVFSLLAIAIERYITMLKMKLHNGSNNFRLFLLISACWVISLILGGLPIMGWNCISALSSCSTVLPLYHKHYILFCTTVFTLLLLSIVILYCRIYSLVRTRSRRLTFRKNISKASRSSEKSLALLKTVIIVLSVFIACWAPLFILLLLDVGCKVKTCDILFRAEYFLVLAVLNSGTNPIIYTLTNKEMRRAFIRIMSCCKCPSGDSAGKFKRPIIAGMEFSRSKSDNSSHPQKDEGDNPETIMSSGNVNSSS
T7 sequence (P03372 whole entry): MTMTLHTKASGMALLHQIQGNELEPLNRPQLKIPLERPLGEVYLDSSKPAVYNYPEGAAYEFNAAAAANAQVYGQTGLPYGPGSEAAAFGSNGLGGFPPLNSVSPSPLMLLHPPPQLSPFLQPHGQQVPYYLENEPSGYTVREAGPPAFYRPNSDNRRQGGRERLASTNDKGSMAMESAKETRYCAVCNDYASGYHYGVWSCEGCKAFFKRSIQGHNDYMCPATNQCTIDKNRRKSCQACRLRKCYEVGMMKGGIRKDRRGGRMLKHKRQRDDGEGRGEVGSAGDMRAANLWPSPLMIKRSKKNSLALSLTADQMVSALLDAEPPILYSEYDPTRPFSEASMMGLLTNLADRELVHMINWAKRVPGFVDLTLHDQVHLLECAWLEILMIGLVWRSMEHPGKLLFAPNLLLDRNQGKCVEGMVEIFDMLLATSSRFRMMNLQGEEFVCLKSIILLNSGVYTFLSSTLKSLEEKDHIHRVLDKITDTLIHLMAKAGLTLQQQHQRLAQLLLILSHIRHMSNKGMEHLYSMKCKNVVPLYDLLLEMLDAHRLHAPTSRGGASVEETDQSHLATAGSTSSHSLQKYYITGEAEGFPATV
T9 sequence (Q96DB2 whole entry): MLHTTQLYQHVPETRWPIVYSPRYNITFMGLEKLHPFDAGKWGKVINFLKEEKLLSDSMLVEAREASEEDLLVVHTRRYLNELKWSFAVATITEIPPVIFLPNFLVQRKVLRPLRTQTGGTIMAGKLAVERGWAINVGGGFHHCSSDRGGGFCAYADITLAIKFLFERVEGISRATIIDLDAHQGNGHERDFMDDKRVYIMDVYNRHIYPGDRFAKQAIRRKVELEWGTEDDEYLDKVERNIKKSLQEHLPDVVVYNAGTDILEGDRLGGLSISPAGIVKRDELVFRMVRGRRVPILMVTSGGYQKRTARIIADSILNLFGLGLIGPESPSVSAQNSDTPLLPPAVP
T13 sequence (P30542 whole entry): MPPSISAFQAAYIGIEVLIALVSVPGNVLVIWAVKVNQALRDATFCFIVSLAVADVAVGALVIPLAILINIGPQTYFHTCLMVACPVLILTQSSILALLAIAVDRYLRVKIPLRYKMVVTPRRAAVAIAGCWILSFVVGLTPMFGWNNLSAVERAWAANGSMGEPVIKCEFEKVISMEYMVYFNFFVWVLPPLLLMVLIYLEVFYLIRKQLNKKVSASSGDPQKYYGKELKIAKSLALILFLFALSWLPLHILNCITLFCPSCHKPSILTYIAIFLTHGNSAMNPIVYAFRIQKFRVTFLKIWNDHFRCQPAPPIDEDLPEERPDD

O=C(OCc1ccc(OC(F)(F)F)cc1)N1C[C@@H]2CN(C(=O)c3ccc4[nH]nnc4c3)C[C@H]2C1 [Compound 13, (3aS,6aS)-5-(1H-Benzotriazole-5-carbonyl)-hexahydro-pyrrolo[3,4-c]pyrrole-2-carboxylic acid 4-trifluoromethoxy-benzyl ester]
Histamine H1 receptor (h) [% inhib] (Histamine H1 receptor): 5 % inhib
GSK-3B (h) [% inhib] (GSK-3B): -8 % inhib
MAO-A (h) [% inhib] (MAO-A): -1 % inhib
5HT3 (h) [% inhib] (5HT3): -2 % inhib
Glycine receptor (strychnine insensitive) (r) [% inhib] [1]: 17 % inhib
Mic CL m [2]: 10/10/10 µL/m/mg prot
Nicotinic receptor (muscle) (h) [% inhib] [3]: 3 % inhib
Prostaglandin F receptor (h) [% inhib] (Prostaglandin F receptor): 26 % inhib
ACE (h) [% inhib] (ACE): -25 % inhib
Estrogen receptor alpha (h) [% inhib] (Estrogen receptor alpha): -6 % inhib
S1P1 (h), agonist mode [% pos ctrl] (S1P1): 5 % pos ctrl
Sigma (h) [% inhib] (Sigma): 38 % inhib
HDAC11 (h) [% inhib] (HDAC11): 0 % inhib
LPA3 receptor (h), antago. mode [% inhib] (LPA3 receptor [4]): 56 % inhib
MMP-3 (h) [% inhib] (MMP-3): 3 % inhib
Alpha2A-adrenoreceptor (h) [% inhib] (Alpha2A-adrenoreceptor): 3 % inhib
LPA3 receptor (h), agonist mode [% pos ctrl] (LPA3 receptor [5]): -3 % pos ctrl
Adenosine A1 respetor (h) [% inhib] (Adenosine A1 respetor): 1 % inhib
Mic CL h [6]: 10/10/10 µL/m/mg prot
Cyclooxygenase 2 (h) [% inhib] (Cyclooxygenase 2): 1 % inhib
